Laboratory results as given in patent US20260248087A1, “GENERATING DOUBLED HAPLOID PLANTS” (Syngenta Crop Protection AG, priority 2023, published 2026).

Tests used:
GST27 [1] = assay: GST27 induction, metcamifen co-treatment of isolated embryos during colchicine doubling; type: cell-based, maize; settings: for GST27 Induction Mean: co-treatment with colchicine
Protocol: (§1) For the examples below, GST27 was used as a quick indicator for treatment effectiveness.
Isolated embryos were treated with metcamifen during colchicine doubling (also referred to as co-treatment). Metcamifen was added in the colchicine co-treatment media (a.k.a. doubling media) as a formulation at concentrations of 0, 200, 400, 800, 1200 mg/L. Metcamifen concentrations tested for a 24-hour duration ranged from 0-1000 mg/L. Metcamifen concentrations tested for a 48-hour condition ranged from 0-1200 mg/L. Three to four genotypes representing two heterotic groups were tested.
Initial testing on three genotypes included co-treatment of metcamifen and colchicine in Gelzan media at 28° C. with 150 PAR light at concentrations of 0, 200, and 1000 mg/L to identify a range of working concentrations. The 200 and 1000 mg/L concentrations induced similar GST27 expression levels for both the 24- and 48-hour durations. The resulting induction was higher (400 ng/mg TSP GST27) than recorded with pre-treatments of ears or isolated embryos. […] Metcamifen co-treatment of isolated embryos optimization continued by testing levels of 0, 400, 600, and 800 mg/L for 24 and 48 hours with 4 genotypes across 2 heterotic groups. GST induction (ng/mg TSP) was measured after metcamifen co-treatment. […] The percent potted rate after metcamifen co-treatment was similar for both time durations when sorted by genotype or heterotic group.

GST27 [2] = assay: GST27 induction, metcamifen pre-treatment of isolated embryos; type: cell-based, maize; settings: for GST27 before doubling, Mean: embryo pre-treatment 10 mg/L in MS media; for GST27 Mean: embryo pre-treatment in MS media
Protocol: as §1
(§2) Embryos from maize ears were isolated and treated with metcamifen prior to a colchicine doubling treatment. Isolated embryos plated on filter paper were pre-treated with a formulation of metcamifen at concentrations of 0, 10, 100, and 1000 mg/L in Murashige and Skoog Medium (MS media) for a duration of 1, 3, 5, or 7 days at 6° C. with 150 PAR light. GST27 induction was measured after pre-treatment at each time point and again at the end of the colchicine treatment. Resulting embryos were germinated, and the percentage of embryos successfully transferred to soil (percent potted rate) was measured as an indicator of plant health and pre-treatment effectiveness. GST27 was induced by metcamifen at a medium level ([…] of TSP), but higher than ear pre-treatment that was less than 10 ng/ml of TSP.
The addition of 10% DMSO in the metcamifen formulation at 10, 100, and 1000 mg/L in the MS media was tested to potentially increase the uptake of metcamifen. This test was done at temperatures of both 6° C. and 20° C. over a course of 0 to 4 days. There was no increase in GST27 expression with the 10% DMSO addition at either temperature.
(§3) Embryo pre-treatment with metcamifen at 10 mg/L was tested at temperatures of 6° C. and 20° C. for 1 day to measure the impact of temperature on embryo health.

embryos from maize ears = assay: Potted rate after metcamifen pre-treatment of isolated embryos; type: in vivo
Source text: As used herein, the term “potted rate” or “potting rate” refers to the percent of germinated embryos successfully transferred to soil from total treated haploid embryos. The “potted rate” is used as an indication of plant health in monitoring the success of recovery and growth after treatment of haploids. As used herein, the term “transplant rate” refers to the survival of healthy plants after embryos were germinated and transferred to soil.
as §2, §3

GST27 [3] = assay: GST27 induction, metcamifen post-treatment during germination; type: cell-based, maize; settings: for GST27 Mean: post-treatment in germination media (2.5 g/L Gelzan)
Protocol: as §1
Doubled haploid embryos were treated with metcamifen during germination. Metcamifen was tested in the germination media at 0, 5, and 10 mg/L after colchicine treatment completion for 24 or 48 hours. The germination media comprised Gelzan at a concentration of 3.5 g/L. Four genotypes were tested representing two heterotic groups. […] The percent potting rate was not increased as result of these post-treatments. […] This led to a looping of the roots. A reduction in Gelzan concentration from 3.5 g/L to 2.5 g/L was tested (comparison data not presented here). The experiments were then carried out with 2.5 g/L Gelzan for metcamifen post-treatments while the control (0 metcamifen) contained 3.5 g/L Gelzan. Metcamifen was tested as 0, 5, 10 and 20 mg/L after colchicine treatment completion for 24 and 48 hours. The reduction in Gelzan of the metcamifen post-treatments led to a higher percent potting rate (see Table 5).

**Q.** With CNC(=O)Nc1ccc(S(=O)(=O)NC(=O)c2ccccc2OC)cc1 [Metcamifen, metcamifen] as the compound, how does the “GST27 induction among 0, 400, 600, 800 mg/L” value (GST27 [1]; 800 mg/L, 48-hour co-treatment, 4 genotypes) read?
**A.** The value was “highest induction”.

**Q.** And the “GST27 Induction Mean” value (GST27 [1]; 200 mg/L, 24 hours)?
**A.** Its value is 383.25 ng/mg TSP.

**Q.** What about the “GST27 Induction Mean” value (GST27 [1]; 400 mg/L, 24 hours) of the same compound?
**A.** Its value is 396.13 ng/mg TSP.

**Q.** What about the “GST27 Induction Mean” value (GST27 [1]; 400 mg/L, 48 hours) of the same compound?
**A.** The value was 609.50 ng/mg TSP.

**Q.** And the “GST27 Induction Mean” value (GST27 [1]; 800 mg/L, 24 hours)?
**A.** Its value is 489.38 ng/mg TSP.

**Q.** What about the “GST27 Induction Mean” value (GST27 [1]; 800 mg/L, 48 hours) of the same compound?
**A.** The value was 666.50 ng/mg TSP.

**Q.** What about the “GST27 Induction Mean” value (GST27 [1]; 1200 mg/L, 48 hours) of the same compound?
**A.** The value was 796.63 ng/mg TSP.

**Q.** And the GST27 induction (GST27 [1]; initial testing, 200 and 1000 mg/L, 24- and 48-hour, Gelzan media, 28° C., three genotypes)?
**A.** The GST27 induction was 400 ng/mg TSP.

**Q.** What about the “GST27 induction in comparison to the control and other doses” value (GST27 [2]; 10 mg/L, all time points, 6° C. and 20° C., DMSO test) of the same compound?
**A.** The value was “best GST27 induction”.

**Q.** And the “GST27 expression with 10% DMSO addition” value (GST27 [2]; 10, 100, 1000 mg/L in MS media, 6° C. and 20° C., 0 to 4 days)?
**A.** Its value is “no increase”.

**Q.** What about the “GST27 before doubling, Mean” value (GST27 [2]; 1 day, 6° C.) of the same compound?
**A.** Its value is 8.83 ng/mg TSP.

**Q.** What about the “GST27 before doubling, Mean” value (GST27 [2]; 1 day, 20° C.) of the same compound?
**A.** Its value is 140 ng/mg TSP.

**Q.** What about the “GST27 Mean” value (GST27 [2]; 10 mg/L, 1 day, 6° C.) of the same compound?
**A.** Its value is 9 ng/mg TSP.

**Q.** What about the “GST27 Mean” value (GST27 [2]; 10 mg/L, 3 days, 6° C.) of the same compound?
**A.** The value was 14 ng/mg TSP.

**Q.** And the “GST27 Mean” value (GST27 [2]; 10 mg/L, 5 days, 6° C.)?
**A.** Its value is 37 ng/mg TSP.

**Q.** And the “GST27 Mean” value (GST27 [2]; 10 mg/L, 7 days, 6° C.)?
**A.** The value was 75 ng/mg TSP.

**Q.** And the “GST27 Mean” value (GST27 [2]; 100 mg/L, 1 day, 6° C.)?
**A.** Its value is 21 ng/mg TSP.

**Q.** What about the “GST27 Mean” value (GST27 [2]; 100 mg/L, 3 days, 6° C.) of the same compound?
**A.** Its value is 30 ng/mg TSP.

**Q.** And the “GST27 Mean” value (GST27 [2]; 100 mg/L, 5 days, 6° C.)?
**A.** Its value is 61 ng/mg TSP.

**Q.** What about the “GST27 Mean” value (GST27 [2]; 100 mg/L, 7 days, 6° C.) of the same compound?
**A.** Its value is 92 ng/mg TSP.

**Q.** And the “GST27 Mean” value (GST27 [2]; 1000 mg/L, 1 day, 6° C.)?
**A.** The value was 11 ng/mg TSP.

**Q.** What about the “GST27 Mean” value (GST27 [2]; 1000 mg/L, 3 days, 6° C.) of the same compound?
**A.** Its value is 71 ng/mg TSP.

**Q.** And the “GST27 Mean” value (GST27 [2]; 1000 mg/L, 5 days, 6° C.)?
**A.** Its value is 60 ng/mg TSP.

**Q.** What about the “GST27 Mean” value (GST27 [2]; 1000 mg/L, 7 days, 6° C.) of the same compound?
**A.** The value was 108 ng/mg TSP.

**Q.** What about the “GST27 induced by metcamifen (medium level)” value (GST27 [2]; embryo pre-treatment, 10-1000 mg/L, 1-7 days, 6° C.) of the same compound?
**A.** The value was < 100 ng/ml of TSP.

**Q.** What about the “Potted Rate Mean” value (embryos from maize ears; embryo pre-treatment 10 mg/L in MS media, 1 day, 6° C. (Table 3 experiment)) of the same compound?
**A.** Its value is 62%.

**Q.** And the “Potted Rate Mean” value (embryos from maize ears; embryo pre-treatment 10 mg/L in MS media, 1 day, 6° C. (Table 3 experiment), listed as metcamifen)?
**A.** Its value is “significantly higher potting rate than the control”.

**Q.** What about the “Potted Rate Mean” value (embryos from maize ears; embryo pre-treatment 10 mg/L in MS media, 1 day, 20° C.) of the same compound?
**A.** Its value is 23%.

**Q.** What about the “Potted Rate Mean” value (embryos from maize ears; embryo pre-treatment 10 mg/L in MS media, 1 day, 20° C., listed as metcamifen) of the same compound?
**A.** The value was 2%.

**Q.** What about the “Potted Rate Mean” value (embryos from maize ears; embryo pre-treatment in MS media, 10 mg/L, 1 day, 6° C.) of the same compound?
**A.** Its value is 46%.

**Q.** And the “Potted Rate Mean” value (embryos from maize ears; embryo pre-treatment in MS media, 10 mg/L, 3 days, 6° C.)?
**A.** Its value is 38%.

**Q.** What about the “Potted Rate Mean” value (embryos from maize ears; embryo pre-treatment in MS media, 10 mg/L, 5 days, 6° C.) of the same compound?
**A.** The value was 4%.

**Q.** And the “Potted Rate Mean” value (embryos from maize ears; embryo pre-treatment in MS media, 10 mg/L, 7 days, 6° C.)?
**A.** Its value is 27%.

**Q.** What about the “Potted Rate Mean” value (embryos from maize ears; embryo pre-treatment in MS media, 100 mg/L, 1 day, 6° C.) of the same compound?
**A.** The value was 12%.

**Q.** What about the “Potted Rate Mean” value (embryos from maize ears; embryo pre-treatment in MS media, 100 mg/L, 3 days, 6° C.) of the same compound?
**A.** Its value is 12%.

**Q.** What about the “Potted Rate Mean” value (embryos from maize ears; embryo pre-treatment in MS media, 100 mg/L, 5 days, 6° C.) of the same compound?
**A.** Its value is 16%.

**Q.** And the “Potted Rate Mean” value (embryos from maize ears; embryo pre-treatment in MS media, 100 mg/L, 7 days, 6° C.)?
**A.** The value was 24%.

**Q.** And the “Potted Rate Mean” value (embryos from maize ears; embryo pre-treatment in MS media, 1000 mg/L, 1 day, 6° C.)?
**A.** Its value is 10%.

**Q.** And the “Potted Rate Mean” value (embryos from maize ears; embryo pre-treatment in MS media, 1000 mg/L, 3 days, 6° C.)?
**A.** The value was 16%.

**Q.** What about the “Potted Rate Mean” value (embryos from maize ears; embryo pre-treatment in MS media, 1000 mg/L, 5 days, 6° C.) of the same compound?
**A.** The value was 17%.

**Q.** What about the “Potted Rate Mean” value (embryos from maize ears; embryo pre-treatment in MS media, 1000 mg/L, 7 days, 6° C.) of the same compound?
**A.** The value was 17%.

**Q.** And the “GST27 expression versus control” value (GST27 [3]; post-treatment 5 and 10 mg/L, 3.5 g/L Gelzan, 24 and 48 hours)?
**A.** Its value is “higher than the control group”.

**Q.** And the “GST27 Mean” value (GST27 [3]; 5 mg/L, Duration 24 hours)?
**A.** Its value is 327 ng/mg TSP.

**Q.** What about the “GST27 Mean” value (GST27 [3]; 5 mg/L, Duration 48 hours) of the same compound?
**A.** Its value is 317 ng/mg TSP.

**Q.** And the “GST27 Mean” value (GST27 [3]; 10 mg/L, Duration 24 hours)?
**A.** Its value is 345 ng/mg TSP.

**Q.** And the “GST27 Mean” value (GST27 [3]; 10 mg/L, Duration 48 hours)?
**A.** Its value is 290 ng/mg TSP.

**Q.** What about the “GST27 Mean” value (GST27 [3]; 20 mg/L, Duration 24 hours) of the same compound?
**A.** The value was 404 ng/mg TSP.

**Q.** And the “GST27 Mean” value (GST27 [3]; 20 mg/L, Duration 48 hours)?
**A.** The value was 400 ng/mg TSP.
